The subject of the test is microorganisms adhered on the surfaces of test pieces. The test can be described thus: Test example I: adhesion of slime (microorganisms, as ATP) to SUS316L test pieces in flow columns. To be noted: 13 days; for Amount of microorganisms adhered: 1.7 L/min, no treatment 121. The format is cell-based. As for the experimental part:
A test for confirming the capabilities of a combined-chlorine slime-control agent and a stabilized-bromine slime-control agent to reduce the adhesion of slime to the energy recovery device was conducted.
Water produced by treating wastewater from Kurita Global Technology Center of Kurita Water Industries Ltd. was used as test water.
In the testing apparatus, the test water fed from a pipe 20 is split into pipes 21, 22, and 23 and passed through columns 31, 32, and 33 provided with test pieces 31a, 32a, and 33a (3 cm×5 cm test pieces made of SUS316L) fixed to the respective inner walls. FI1, FI2, and FI3 represent a flow meter. V1, V2, and V3 represent a valve.
The test water was passed into the columns 31 to 33 through the branch pipes 21 to 23 at a flow rate of 1.7 L/min for 13 days. While the test water was passed through the testing apparatus, the chemical-1 was injected into the pipe 22 such that the total chlorine concentration measured by the DPD method produced by HACH was 1.0 mg/L (Test No. 2), and the chemical-2 was injected into the pipe 23 such that the total chlorine concentration measured by the same method as in Test No. 2 was 0.8 mg/L (Test No. 3). No chemical (no treatment) was added to the pipe 21 (Test No. 1).
After the test water had been passed through the testing apparatus for 13 days, the test pieces 31a to 33a were removed, and the microorganisms adhered on the surfaces thereof were sampled. The amount of microorganisms adhered on the surface of each of the test pieces was measured with a “Lumitester C-110” produced by Kikkoman Biochemifa Company. The amount of microorganisms was measured as ATP and expressed in the unit of pg/cm^2.

As to bromosulfamate [Chemical-2], under “0.8 mg/L as total chlorine”, the “adhesion of microorganisms compared with no treatment” value is given as “reduced the adhesion of microorganisms”. Moreover, for the setting “Test No. 3, 0.8 mg/L as total chlorine”, the “Amount of microorganisms adhered” value was 72 ATP pg/cm^2.

`O=S(=O)([O-])NCl.[Na+]` [NHClSO3Na, sodium monochlorosulfamate]: for the setting “1.0 mg/L as total chlorine”, the “adhesion of microorganisms compared with no treatment” value was “reduced the adhesion of microorganisms”. The “Amount of microorganisms adhered” value (Test No. 2, 1.0 mg/L as total chlorine) was found to be 49 ATP pg/cm^2.

The values are drawn from patent US10730771B2, “Method for operating reverse-osmosis membrane treatment system” (priority 2015, dated 2020).
